Patent US10206400B2, “Insecticidal compounds based on isoxazoline derivatives” (Syngenta Crop Protection LLC, priority 2009, dated 2019)

How the values were obtained:
Format in all cases: in vivo
Tetranychus urticae = Tetranychus urticae (two-spotted spider mite) leaf disc spray test; conditions: foliar, 192 h, 200 ppm spray on bean leaf discs, mixed ages, 8 days, egg, larval and adult mortality
Excerpt: Bean leaf discs on agar in 24-well microtiter plates were sprayed with test solutions at an application rate of 200 ppm. After drying, the leaf discs are infested with mite populations of mixed ages. 8 days later, discs are checked for egg mortality, larval mortality, and adult mortality.

Diabrotica balteata = Diabrotica balteata (corn root worm) artificial diet test; conditions: 120 h, 200 ppm (concentration in well 18 ppm), L2 larvae, 5 days, larval mortality, growth regulation
Method: A 24-well microtiter plate (MTP) with artificial diet was treated with test solutions at an application rate of 200 ppm (concentration in well 18 ppm) by pipetting. After drying, the MTP's were infested with L2 larvae (6-10 per well). After an incubation period of 5 days, samples were checked for larval mortality and growth regulation.

Thrips tabaci = Thrips tabaci (onion thrips) leaf disc spray test; conditions: foliar, 168 h, 200 ppm spray on sunflower leaf discs, mixed ages, 7 days, mortality
Method: [The procedure below names another target; the source lists this target under the same test.] Sunflower leaf discs were placed on agar in a 24-well microtiter plate and sprayed with test solutions at an application rate of 200 ppm. After drying, the leaf discs were infested with an […] population of mixed ages. After an incubation period of 7 days, samples were checked for mortality.

Plutella xylostella = Plutella xylostella (diamond back moth) artificial diet test; conditions: 144 h, 200 ppm (concentration in well 18 ppm), L2 larvae, 6 days, larval mortality, growth regulation
Method: 24-well microtiter plate (MTP) with artificial diet was treated with test solutions at an application rate of 200 ppm (concentration in well 18 ppm) by pipetting. After drying, the MTP's were infested with L2 larvae (7-12 per well). After an incubation period of 6 days, samples were checked for larval mortality and growth regulation.

Spodoptera littoralis = Spodoptera littoralis (Egyptian cotton leafworm) leaf disc spray test; conditions: foliar, 72 h, 200 ppm spray on cotton leaf discs, L1 larvae, mortality, feeding behavior, growth regulation 3 days after treatment
Excerpt: Cotton leaf discs were placed on agar in a 24-well microtiter plate and sprayed with test solutions at an application rate of 200 ppm. After drying, the leaf discs were infested with 5 L1 larvae. The samples were checked for mortality, feeding behavior, and growth regulation 3 days after treatment (DAT).

Myzus persicae = Myzus persicae (green peach aphid), systemic test; conditions: 144 h, roots of infested pea seedlings in test solution, 6 days, mortality, special effects on the plant
Excerpt: Myzus persicae (Green peach aphid), systemic test: Roots of pea seedlings, infested with an aphid population of mixed ages, are placed directly in the test solutions at an application rate of 12.5 ppm. 6 days after introduction, samples are checked for mortality and special effects on the plant. The following compounds gave at least 80% control of Myzus persicae: A3, B2, B3, B5, B6, B7, B8, B11, B12, C1, C2, C3,C4, C5, C6, C7, D1, E1, E2, G1, G3, G5, G6, H1, H5, H6, H9, H10, H11, H12, H13, H14, H18, H19, H20, H24, H25, and H26.

Heliothis virescens = Heliothis virescens (tobacco budworm) egg/artificial diet test; conditions: 96 h, 200 ppm (concentration in well 18 ppm), eggs 0-24 h old on artificial diet, 4 days, egg mortality, larval mortality, growth regulation
Method: Eggs (0-24 h old) were placed in 24-well microtiter plate on artificial diet and treated with test solutions at an application rate of 200 ppm (concentration in well 18 ppm) by pipetting. After an incubation period of 4 days, samples were checked for egg mortality, larval mortality, and growth regulation.

Cc1cc(C2=NOC(c3cc(Cl)cc(Cl)c3)(C(F)(F)F)C2)ccc1C(=O)N[C@@H]1CON(C2COC2)C1=O (stereo partly drawn) [Compound B12, 4-[5-(3,5-Dichloro-phenyl)-5-trifluoromethyl-4,5-dihydro-isoxazol-3-yl]-2-methyl-N-((R)-2-(oxetan-3-yl)-3-oxo-isoxazolidin-4-yl)-benzamide]
≥ 80%: pest or weed control at 200 ppm (Tetranychus urticae) | pest or weed control at 200 ppm (Diabrotica balteata) | pest or weed control at 200 ppm (Thrips tabaci) | pest or weed control at 200 ppm (Plutella xylostella) | pest or weed control at 200 ppm (Spodoptera littoralis) | pest or weed control at 12.5 ppm (Myzus persicae) | pest or weed control at 200 ppm (Heliothis virescens)

Cc1cc(C2=NOC(c3cc(Cl)cc(Cl)c3)(C(F)(F)F)C2)ccc1C(=O)N[C@H]1CON(C)C1=O (stereo partly drawn) [Compound E1, 4-[5-(3,5-Dichloro-phenyl)-5-trifluoromethyl-4,5-dihydro-isoxazol-3-yl]-2-methyl-N-((S)-2-methyl-3-oxo-isoxazolidin-4-yl)-benzamide]
≥ 80%: pest or weed control at 200 ppm (Tetranychus urticae) | pest or weed control at 200 ppm (Diabrotica balteata) | pest or weed control at 200 ppm (Thrips tabaci) | pest or weed control at 200 ppm (Plutella xylostella) | pest or weed control at 200 ppm (Spodoptera littoralis) | pest or weed control at 12.5 ppm (Myzus persicae) | pest or weed control at 200 ppm (Heliothis virescens)

CCN1OC[C@@H](NC(=O)c2ccc(C3=NOC(c4cc(Cl)c(F)c(Cl)c4)(C(F)(F)F)C3)cc2C)C1=O (stereo partly drawn) [Compound C3, 4-[5-(3,5-Dichloro-4-fluoro-phenyl)-5-trifluoromethyl-4,5-dihydro-isoxazol-3-yl]-2-methyl-N-((R)-2-ethyl-3-oxo-isoxazolidin-4-yl)-benzamide]
≥ 80%: pest or weed control at 200 ppm (Tetranychus urticae) | pest or weed control at 200 ppm (Diabrotica balteata) | pest or weed control at 200 ppm (Thrips tabaci) | pest or weed control at 200 ppm (Plutella xylostella) | pest or weed control at 200 ppm (Spodoptera littoralis) | pest or weed control at 12.5 ppm (Myzus persicae) | pest or weed control at 200 ppm (Heliothis virescens)

CCN1OC[C@@H](NC(=O)c2ccc(C3=NOC(c4cc(Cl)c(Br)c(Cl)c4)(C(F)(F)F)C3)cc2C)C1=O (stereo partly drawn) [Compound C2, 4-[5-(3,5-Dichloro-4-bromo-phenyl)-5-trifluoromethyl-4,5-dihydro-isoxazol-3-yl]-2-methyl-N-((R)-2-ethyl-3-oxo-isoxazolidin-4-yl)-benzamide]
≥ 80%: pest or weed control at 200 ppm (Tetranychus urticae) | pest or weed control at 200 ppm (Diabrotica balteata) | pest or weed control at 200 ppm (Thrips tabaci) | pest or weed control at 200 ppm (Plutella xylostella) | pest or weed control at 200 ppm (Spodoptera littoralis) | pest or weed control at 12.5 ppm (Myzus persicae) | pest or weed control at 200 ppm (Heliothis virescens)

Cc1cc(C2=NO[C@@](c3cc(Cl)cc(Cl)c3)(C(F)(F)F)C2)ccc1C(=O)N[C@@H]1CON(CC(F)F)C1=O [Compound G5, 4-[5-(3,5-Dichloro-phenyl)-5-(S)-trifluoromethyl-4,5-dihydro-isoxazol-3-yl]-2-methyl-N—((R)-2-(2,2-difluoroethyl)-3-oxo-isoxazolidin-4-yl)-benzamide]
≥ 80%: pest or weed control at 200 ppm (Tetranychus urticae) | pest or weed control at 200 ppm (Diabrotica balteata) | pest or weed control at 200 ppm (Thrips tabaci) | pest or weed control at 200 ppm (Plutella xylostella) | pest or weed control at 200 ppm (Spodoptera littoralis) | pest or weed control at 12.5 ppm (Myzus persicae) | pest or weed control at 200 ppm (Heliothis virescens)

C#CCN1OC[C@@H](NC(=O)c2ccc(C3=NOC(c4cc(Cl)cc(Cl)c4)(C(F)(F)F)C3)cc2C)C1=O (stereo partly drawn) [Compound B3, 4-[5-(3,5-Dichloro-phenyl)-5-trifluoromethyl-4,5-dihydro-isoxazol-3-yl]-2-methyl-N-((R)-2-propargyl-3-oxo-isoxazolidin-4-yl)-benzamide]
≥ 80%: pest or weed control at 200 ppm (Tetranychus urticae) | pest or weed control at 200 ppm (Diabrotica balteata) | pest or weed control at 200 ppm (Thrips tabaci) | pest or weed control at 200 ppm (Plutella xylostella) | pest or weed control at 200 ppm (Spodoptera littoralis) | pest or weed control at 12.5 ppm (Myzus persicae) | pest or weed control at 200 ppm (Heliothis virescens)

Cc1cc(C2=NOC(c3cc(Cl)cc(Cl)c3)(C(F)(F)F)C2)ncc1C(=O)N[C@@H]1CON(CC(F)(F)F)C1=O (stereo partly drawn) [Compound C6, 6-[5-(3,5-Dichloro-phenyl)-5-trifluoromethyl-4,5-dihydro-isoxazol-3-yl]-4-methyl-N— [(R)-3-oxo-2-(2,2,2-trifluoro-ethyl)-isoxazolidin-4-yl]-nicotinamide]
≥ 80%: pest or weed control at 200 ppm (Tetranychus urticae) | pest or weed control at 200 ppm (Diabrotica balteata) | pest or weed control at 200 ppm (Thrips tabaci) | pest or weed control at 200 ppm (Plutella xylostella) | pest or weed control at 200 ppm (Spodoptera littoralis) | pest or weed control at 12.5 ppm (Myzus persicae) | pest or weed control at 200 ppm (Heliothis virescens)

CCN1OC[C@@H](NC(=O)c2ccc(C3=NOC(c4cc(F)cc(Cl)c4)(C(F)(F)F)C3)cc2C)C1=O (stereo partly drawn) [Compound C5, 4-[5-(3-chloro-5-fluoro-phenyl)-5-trifluoromethyl-4,5-dihydro-isoxazol-3-yl]-2-methyl-N-((R)-2-ethyl-3-oxo-isoxazolidin-4-yl)-benzamide]
≥ 80%: pest or weed control at 200 ppm (Tetranychus urticae) | pest or weed control at 200 ppm (Diabrotica balteata) | pest or weed control at 200 ppm (Thrips tabaci) | pest or weed control at 200 ppm (Plutella xylostella) | pest or weed control at 200 ppm (Spodoptera littoralis) | pest or weed control at 12.5 ppm (Myzus persicae) | pest or weed control at 200 ppm (Heliothis virescens)
